# Target: recombinant human ACC1 (Homo sapiens (Human), UniProt Q13085)
# Experiment: Measurement of inhibitory activity on human ACC1 (MALDI-TOF MS, acetyl CoA to malonyl CoA conversion)
# Assay type: biochemical
# Settings: not given
# Description: Preparation 2: Preparation of Recombinant Human ACC1
# After a cDNA encoding human ACC1 (1 amino acid residue to 2346 amino acid residues from the N-terminus) was cloned from human liver cDNA library (BioChain), human ACC1 gene containing myc-tag and His-tag sequence at 3′ terminus was inserted into pIEXBAC3 (Novagen). Recombinant baculovirus was generated using FlashBACGOLD system (Oxford Expression Technologies) according to the manufacturer's protocol. To express human ACC1, Sf-9 cells were infected with recombinant baculovirus. After infected cells were disrupted, the filtrated lysate was subjected to Ni-affinity chromatography and anion-exchange chromatography. The fractions containing human ACC1 protein were pooled as recombinant human ACC1 solution.
# The Measurement of Inhibitory Activity on Human ACC1 and the ACC2
# Recombinant human ACC1 and recombinant human ACC2, which were prepared by the method mentioned above, were preincubated with assay buffer solution (50 mM HEPES-KOH (pH 7.4), 10 mM magnesium chloride, 6-10 mM potassium citrate, 4 mM reduced form of glutathione, 1.5 mg/ml bovine serum albumin) for one hour. Then, 0.2 μL of each this invention compound solution (in DMSO) were dispensed to 384-well microplate, 5 μL of the preincubated enzyme solution and 5 μL of substrate solution (50 mM HEPES-KOH (pH 7.4), 1 mM ATP, 0.8 mM acetyl CoA and 25-50 mM potassium bicarbonate) were added to microplate. After centrifugation and shaking, the reaction mixtures were incubated in a humidified box at room temperature for 1 to 3 hours. After the incubation, the enzyme reactions were stopped by the addition of EDTA. Then, after the samples were cocrystallized with CHCA (α-cyano-4-hydroxy cinnamic acid) matrices on MALDI target plate, by using the matrix assist laser […] time-of-flight mass spectrometer (MALDI-TOF MS), samples were measured in reflector negative mode. Deprotonated ions of acetyl CoA (AcCoA) of substrate and malonyl CoA (MalCoA) of the reaction product were detected, then, the conversion rates of acetyl CoA to malonyl CoA was calculated by the intensity of [MalCoA-H]−/(Intensity of [MalCoA-H]−+Intensity of [AcCoA-H]−) using each signal strength. […] In addition, potassium citrate concentrations in assay buffer solution, potassium hydrogen carbonate concentrations in substrate solution and incubation time were adjusted by each lot of enzyme.
row,Structure (SMILES),IC50
1,CC(=O)N[C@H]1CCC[C@@H]1Oc1ccc(Oc2ccc3nc(C(C)C)sc3c2Cl)cn1 [Compound I-106],> 100000 nM
2,CC(=O)N[C@@H](C)CO[C@H]1CC[C@H](Oc2ccc3nn(C(C)C)cc3c2Cl)CC1 [Compound I-067],> 100000 nM
3,CCn1c(=O)sc2c(F)c(Oc3cnc(O[C@@H](C)[C@H](C)NC(C)=O)cn3)ccc21 [Compound I-058],> 100000 nM
4,CC(=O)N[C@@H](C)COc1cnc(Oc2ccc(C(=O)NC3CCOCC3)c(F)c2F)cn1 [Compound I-091],> 100000 nM
5,CC(=O)N[C@@H](C)CO[C@H]1C[C@H](COc2ccc3nc(C(C)(F)F)sc3c2Cl)C1 [Compound I-098],> 100000 nM
6,CC(=O)N[C@@H](C)COc1cnc(Oc2ccc3nc(C(C)C)oc3c2Cl)cn1 [Compound I-037],> 100000 nM
7,CCCc1ccc(Oc2ccc(OC[C@H](C)NC(=O)OC(C)(C)C)cn2)c(Cl)c1 [Compound I-003],> 100000 nM

# Target: recombinant human ACC2 (Homo sapiens (Human), UniProt O00763)
# Experiment: Measurement of inhibitory activity on human ACC2 (MALDI-TOF MS, acetyl CoA to malonyl CoA conversion)
# Assay type: biochemical
# Settings: Table 154
# How it was run: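 His-tagged human ACC2 (residues 27–2458) from baculovirus-infected Sf-9 cells was preincubated 1 h in pH 7.4 HEPES-KOH buffer with MgCl2, 6-10 mM potassium citrate, glutathione and BSA. Substrate solution held 1 mM ATP, 0.8 mM acetyl CoA and 25-50 mM bicarbonate. After 1–3 h at room temperature, malonyl CoA/(malonyl+acetyl CoA) was read by negative-mode MALDI-TOF MS; citrate, bicarbonate and time varied by enzyme lot.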
# recombinant human ACC2, sequence (O00763 27-2458): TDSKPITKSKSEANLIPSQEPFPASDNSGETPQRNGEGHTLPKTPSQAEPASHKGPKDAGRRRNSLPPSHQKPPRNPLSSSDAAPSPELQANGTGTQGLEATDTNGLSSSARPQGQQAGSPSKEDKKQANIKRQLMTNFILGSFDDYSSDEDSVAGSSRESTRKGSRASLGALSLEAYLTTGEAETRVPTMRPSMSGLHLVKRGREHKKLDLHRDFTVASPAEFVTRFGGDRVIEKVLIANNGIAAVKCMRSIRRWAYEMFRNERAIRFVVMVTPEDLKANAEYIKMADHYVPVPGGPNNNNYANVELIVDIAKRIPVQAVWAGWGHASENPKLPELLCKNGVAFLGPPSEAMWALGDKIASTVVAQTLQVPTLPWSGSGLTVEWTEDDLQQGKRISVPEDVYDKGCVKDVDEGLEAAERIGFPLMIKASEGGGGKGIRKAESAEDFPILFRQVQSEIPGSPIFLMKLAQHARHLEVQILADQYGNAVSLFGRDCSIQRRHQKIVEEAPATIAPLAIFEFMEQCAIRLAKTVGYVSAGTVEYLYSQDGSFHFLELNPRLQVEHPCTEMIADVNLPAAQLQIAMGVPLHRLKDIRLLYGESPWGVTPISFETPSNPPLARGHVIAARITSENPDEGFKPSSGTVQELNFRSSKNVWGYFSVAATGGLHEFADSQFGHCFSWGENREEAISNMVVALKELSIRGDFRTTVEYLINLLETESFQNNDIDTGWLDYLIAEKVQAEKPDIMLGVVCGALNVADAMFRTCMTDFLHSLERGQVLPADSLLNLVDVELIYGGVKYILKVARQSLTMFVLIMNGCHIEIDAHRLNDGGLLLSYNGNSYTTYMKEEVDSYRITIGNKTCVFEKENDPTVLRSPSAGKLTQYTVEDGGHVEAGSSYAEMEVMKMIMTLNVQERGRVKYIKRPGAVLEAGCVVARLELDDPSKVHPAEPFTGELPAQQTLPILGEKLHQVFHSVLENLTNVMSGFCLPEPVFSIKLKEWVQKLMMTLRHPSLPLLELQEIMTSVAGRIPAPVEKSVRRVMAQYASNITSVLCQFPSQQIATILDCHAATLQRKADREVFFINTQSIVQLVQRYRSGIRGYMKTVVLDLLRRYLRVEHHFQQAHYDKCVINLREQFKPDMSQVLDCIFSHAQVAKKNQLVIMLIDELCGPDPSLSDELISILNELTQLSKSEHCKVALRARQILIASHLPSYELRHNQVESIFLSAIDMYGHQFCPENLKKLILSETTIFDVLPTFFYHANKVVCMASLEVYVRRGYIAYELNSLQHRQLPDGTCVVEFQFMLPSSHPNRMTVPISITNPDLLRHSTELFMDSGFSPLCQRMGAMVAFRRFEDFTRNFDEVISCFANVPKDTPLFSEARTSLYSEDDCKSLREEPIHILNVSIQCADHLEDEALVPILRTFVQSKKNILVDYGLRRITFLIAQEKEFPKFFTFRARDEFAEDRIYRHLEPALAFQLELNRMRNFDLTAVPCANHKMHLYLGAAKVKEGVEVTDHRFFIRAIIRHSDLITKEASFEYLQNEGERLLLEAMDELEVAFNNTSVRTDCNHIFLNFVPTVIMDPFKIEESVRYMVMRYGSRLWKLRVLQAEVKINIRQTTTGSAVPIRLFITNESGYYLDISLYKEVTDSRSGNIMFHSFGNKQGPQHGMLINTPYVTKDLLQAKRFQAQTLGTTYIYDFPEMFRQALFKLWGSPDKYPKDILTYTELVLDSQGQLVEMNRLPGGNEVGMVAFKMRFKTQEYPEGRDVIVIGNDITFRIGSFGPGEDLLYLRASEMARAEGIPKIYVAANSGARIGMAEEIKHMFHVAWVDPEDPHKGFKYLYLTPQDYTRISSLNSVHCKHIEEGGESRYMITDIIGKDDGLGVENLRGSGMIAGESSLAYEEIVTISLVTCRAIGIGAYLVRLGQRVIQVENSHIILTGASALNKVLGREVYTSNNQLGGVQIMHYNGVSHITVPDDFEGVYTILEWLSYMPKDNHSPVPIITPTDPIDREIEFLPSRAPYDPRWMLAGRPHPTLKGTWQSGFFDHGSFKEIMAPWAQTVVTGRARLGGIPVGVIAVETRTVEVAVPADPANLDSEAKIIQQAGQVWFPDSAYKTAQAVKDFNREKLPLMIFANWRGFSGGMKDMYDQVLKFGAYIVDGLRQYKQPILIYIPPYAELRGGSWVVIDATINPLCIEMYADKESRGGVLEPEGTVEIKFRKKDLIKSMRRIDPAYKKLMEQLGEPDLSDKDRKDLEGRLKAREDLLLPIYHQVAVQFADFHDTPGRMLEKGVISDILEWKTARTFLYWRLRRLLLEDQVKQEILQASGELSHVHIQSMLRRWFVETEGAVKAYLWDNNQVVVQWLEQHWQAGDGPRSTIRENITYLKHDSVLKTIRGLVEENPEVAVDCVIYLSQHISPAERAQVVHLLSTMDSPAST
row,Structure (SMILES),IC50
1,CC(=O)N[C@H]1CCC[C@@H]1Oc1ccc(Oc2ccc3nc(C(C)C)sc3c2Cl)cn1 [Compound I-106],91 nM
2,CC(=O)N[C@@H](C)CO[C@H]1CC[C@H](Oc2ccc3nn(C(C)C)cc3c2Cl)CC1 [Compound I-067],933 nM
3,CC(=O)N[C@@H](C)CO[C@H]1C[C@H](COc2ccc3nc(C(C)(F)F)sc3c2Cl)C1 [Compound I-098],792 nM
4,CC(=O)N[C@@H](C)COc1cnc(Oc2ccc3nc(C(C)C)oc3c2Cl)cn1 [Compound I-037],167 nM
5,CCCc1ccc(Oc2ccc(OC[C@H](C)NC(C)=O)cn2)c(Cl)c1 [Compound I-004],3730 nM
6,CCOc1nc2ccc(O[C@H]3C[C@@H](OC[C@H](C)NC(C)=O)C3)c(F)c2s1 [Compound I-076],102 nM
7,CCOc1nc2ccc(Oc3cnc(OC[C@H](C)NC(C)=O)cn3)c(C#N)c2s1 [Compound I-068],25 nM
8,CC(=O)N[C@@H](C)COc1cnc(Oc2ccc3nc(C(C)(F)F)oc3c2F)cn1 [Compound I-043],93 nM
9,CCOc1nc2ccc(O[C@H]3CC[C@](C)(OC[C@H](C)NC(C)=O)CC3)c(F)c2s1 [Compound I-078],189 nM
10,CC(=O)N[C@@H](C)COc1ccc(Oc2ccc3c(c2Cl)CCN(c2ncc(F)cn2)C3)cn1 [Compound I-023],38 nM
11,CC(=O)N[C@@H](C)CO[C@H]1CC[C@@H](Oc2ccc3nc(C(C)C)sc3c2F)CC1 [Compound I-044],756 nM

# Same assay, conditions: Tables 155-159
row,Structure (SMILES),IC50
1,CCOc1ccc2nc(O[C@H]3CC[C@H](OC[C@H](C)NC(C)=O)CC3)n(C)c2c1 [Compound I-559],43 nM
2,CC(=O)N[C@@H](C)CO[C@H]1CC[C@H](Oc2ncc(-c3ncc(F)cn3)cc2C#N)CC1 [Compound I-525],41 nM
3,COc1cc(OCc2ccccc2)cc2c1nc(O[C@H]1CC[C@H](OC[C@H](C)NC(C)=O)CC1)n2C [Compound I-666],298 nM
4,CC(=O)N[C@@H](C)CO[C@H]1CC[C@H](Oc2nc3ccc(OCc4ccccc4)cc3n2C)CC1 [Compound I-558],43 nM
5,COC(=O)NC(=O)N[C@@H](C)CO[C@H]1CC[C@H](Oc2nc3cnc(OC4CC4)c(Cl)c3n2C)CC1 [Compound I-696],497 nM
6,CC(=O)N[C@@H](C)CO[C@H]1CC[C@H](Oc2nc3c(Cl)c(F)c(OCC(F)F)c(F)c3n2C)CC1 [Compound I-618],17 nM
7,CC(=O)N[C@@H](C)CO[C@H]1C[C@H](COc2ccc3nc(N4CCC4)sc3c2F)C1 [Compound I-269],125 nM
8,CC(=O)N[C@@H](C)CO[C@H]1C[C@H](COc2nccc(-n3cc(C(F)(F)F)cn3)c2Cl)C1 [Compound I-327],80 nM
9,CC(=O)N[C@@H](C)CO[C@H]1C[C@H](COc2ncnc(N3CCCC3)c2Cl)C1 [Compound I-338],26 nM
10,CCc1cnc(-c2cnc(O[C@H]3CC[C@H](OC[C@H](C)NC(C)=O)CC3)c(F)c2)nc1 [Compound I-533],102 nM
11,CC(=O)N[C@@H](C)CO[C@H]1CC[C@H](Oc2nc3cnc(OCC(F)F)c(F)c3n2C)CC1 [Compound I-624],9 nM
12,CC(=O)N[C@@H](C)CO[C@H]1C[C@H](COc2nccc(N3CCCCC3)c2Cl)C1 [Compound I-324],51 nM
13,CC(=O)N[C@@H](C)CO[C@H]1C[C@](F)(COc2ccc3nc(OCC(C)(F)F)sc3n2)C1 [Compound I-203],48 nM
14,CC(=O)N[C@@H](C)CO[C@H]1C[C@H](COc2nccc(N3CC(F)(F)C3)c2Cl)C1 [Compound I-323],345 nM
15,CC(=O)N[C@@H](C)CO[C@H]1CC[C@H](Oc2cc3sc(OCC4(C)CC4)nc3cn2)CC1 [Compound I-261],17 nM
16,C[C@@H](CO[C@H]1CC[C@H](Oc2ncc(-c3ncc(F)cn3)cc2F)CC1)NC(N)=O [Compound I-538],71 nM
17,CC(=O)N[C@@H](C)CO[C@H]1C[C@H](COc2ncnc(NCc3ccccc3)c2Cl)C1 [Compound I-391],21 nM
18,CC(=O)N[C@@H](C)CO[C@H]1C[C@H](COc2ncnc3c2c(F)cn3CC2CC2)C1 [Compound I-450],14 nM
19,CC(=O)N[C@@H](C)CO[C@H]1CC[C@H](Oc2nc3ccc(Oc4ccccc4)cc3n2C)CC1 [Compound I-586],9 nM
20,CCOc1nc2cnc(O[C@H]3CC[C@H](OC[C@H](C)NC(C)=O)CC3)cc2s1 [Compound I-179],28 nM
21,CC(=O)N[C@@H](C)CO[C@H]1CC[C@H](Oc2nc3c(C#N)cc(OCC(F)F)cc3n2C)CC1 [Compound I-679],625 nM
22,CC(=O)N[C@@H](C)CO[C@H]1CC[C@H](Oc2nc3c(F)cc(OC4CC4)cc3n2C)CC1 [Compound I-734],4 nM

row,Structure (SMILES),IC50
1,C[C@@H](CO[C@H]1CC[C@H](Oc2cc3sc(OCC4CC4(F)F)nc3cn2)CC1)NC(N)=O (some centres unmarked) [Compound I-291],32 nM
2,CCOc1nc2ccc(O[C@H]3CC[C@H](OC[C@H](C)NC(C)=O)CC3)nc2s1 [Compound I-178],3 nM
3,CC(=O)N[C@@H](C)CO[C@H]1CC[C@H](Oc2ccc3nc(OC4CC4)n(C)c3n2)CC1 [Compound I-495],74 nM
4,CCc1ccc2nc(O[C@H]3CC[C@H](OC[C@H](C)NC(C)=O)CC3)n(C)c2c1 [Compound I-583],71 nM
5,CCOc1nc2ccc(OC[C@H]3C[C@H](OC[C@H](C)NC(C)=O)C3)nc2n1CC [Compound I-479],563 nM
6,CC(=O)N[C@@H](C)CO[C@H]1C[C@H](COc2nccc(C3=CCCCC3)c2Cl)C1 [Compound I-317],14 nM
7,CC(=O)N[C@@H](C)CO[C@H]1C[C@H](COc2nccc(-c3csc(C)n3)c2C)C1 [Compound I-333],203 nM
8,CC(=O)N[C@@H](C)CO[C@H]1CC[C@H](Oc2nc3cnc(OC[C@@H](C)F)c(Cl)c3n2C)CC1 [Compound I-724],9 nM
9,CC(=O)N[C@@H](C)CC[C@H]1OC[C@H](Oc2nc3c(F)cc(OCC(F)F)c(F)c3n2C)CO1 [Compound I-615],27 nM
10,CC(=O)N[C@@H](C)CO[C@H]1C[C@H](COc2nccc(N(C)Cc3ccccc3)c2Cl)C1 [Compound I-413],84 nM
11,CC(=O)N[C@@H](C)CO[C@H]1CC[C@H](Oc2ccc3nc(OC4(C)CC4)n(C)c3n2)CC1 [Compound I-502],62 nM
12,CC(=O)N[C@@H](C)CO[C@H]1C[C@H](COc2ncnc(NC(=O)C3CCCCC3)c2Cl)C1 [Compound I-468],368 nM
13,CC(=O)N[C@@H](C)CO[C@H]1C[C@H](COc2ncnc(OC(C)c3ccccc3)c2Cl)C1 (some centres unmarked) [Compound I-341],119 nM
14,CC(=O)N[C@@H](C)CO[C@H]1CC[C@H](Oc2ncc3cc(OCC(F)F)ccc3n2)CC1 [Compound I-554],620 nM
15,CC(=O)N[C@@H](C)CO[C@H]1C[C@H](COc2ncnc(OCc3cnccn3)c2Cl)C1 [Compound I-406],131 nM
16,CC(=O)N[C@@H](C)CO[C@H]1C[C@H](COc2nccc(-c3ccc(F)cc3)c2C#N)C1 [Compound I-319],281 nM
17,CC(=O)N[C@@H](C)CO[C@H]1CC[C@H](Oc2nc3ccc(C4CC4)cc3n2C)CC1 [Compound I-574],129 nM
18,CC(=O)N[C@@H](C)CO[C@H]1CC[C@H](Oc2nc3cnc(Oc4ccccc4)cc3n2C)CC1 [Compound I-592],110 nM
19,C[C@@H](CO[C@H]1CC[C@H](Oc2ccc3nc(C(C)(F)F)sc3c2F)CC1)NC(N)=O [Compound I-158],48 nM
20,CCOc1ncc2nc(O[C@H]3CC[C@H](OC[C@H](C)NC(C)=O)CC3)n(C)c2c1F [Compound I-694],13 nM
21,CC(=O)N[C@@H](C)[C@@H](C)O[C@H]1CC[C@H](Oc2nc3cnc(OC4CC4)c(F)c3n2C)CC1 [Compound I-746],350 nM
22,CCOc1nc2cc(Cl)c(OC[C@H]3C[C@H](OC[C@H](C)NC(C)=O)C3)cc2s1 [Compound I-110],27 nM

# From patent publication US10150728B2, “Alkylene derivatives” (Shionogi & Co., Ltd., priority 2013, dated 2018)
